Several values for one entry are separate records, joined by “and”; a condition that tells them apart may be missing. Identical values can stand only once.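 Growth conditions: 96-well plates. Treatment: test compound, 48 hours, 5 concentrations. Analysis: linear interpolation between bracketing concentrations; unreached endpoints set to highest concentration. GI50 marks 50% less growth. TGI marks complete inhibition of growth.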
Assays:
Experiment in all cases: DTP human tumour cell line panel, 48 h
[1] = test system: HOP-62 NSCLC
[2] = test system: CCRF-CEM leukemia
[3] = test system: IGROV1 ovarian
[4] = test system: LXFL 529 NSCLC
[5] = test system: SF-295 CNS
[6] = test system: TK-10 renal
[7] = test system: OVCAR-8 ovarian
[8] = test system: HOP-92 NSCLC
[9] = test system: NCI/ADR-RES ovarian

SMILES	TGI [1]	TGI [2]	TGI [3] [µM]	TGI [4] [µM]	TGI [5] [µM]	TGI [6] [µM]	TGI [7]	GI50 [1] [µM]	GI50 [2] [µM]	GI50 [3] [µM]	GI50 [4] [µM]	GI50 [5] [µM]	GI50 [6] [µM]	GI50 [7] [µM]	TGI [8] [µM]	GI50 [8] [µM]	GI50 [9] [µM]	TGI [9]
CC1=Nc2ccccc2S/C1=C1/C=NC(=NC#N)N=C1C(=O)Nc1cccc(Cl)c1	> 100 µM	> 100 µM	> 100	> 100	> 100	> 100	> 100 µM											
CC(=O)[CH-]C(=O)c1ccccc1.CC(=O)[CH-]C(=O)c1ccccc1.Cl.[O-]CCc1ccccn1.[O-]CCc1ccccn1.[Ti+4]	47.7 µM	> 100 µM	75.3	38	> 100	93.3	> 100 µM	23.6	15.9	27.2	15.6	25.6	28.7	30.1				
O=C1CCNC/C1=C\c1ccccc1	79 µM		> 100	34.5	67.8	61.2	43.4 µM											
O=C1N(c2ccc(Cl)cc2)C(=O)C2(SC=NN2Cc2ccccc2)N1c1ccc(Cl)cc1 (stereo not drawn)	> 100 µM	> 100 µM	> 100	> 100		> 100	> 100 µM								> 100			
N#C/C(=C/c1ccc([N+](=O)[O-])o1)c1ccccc1	> 100 µM	> 100 µM		> 100	> 100	> 100	> 100 µM								> 100			
COC1=CC(=O)C2(C=C1OC)OC[C@H]1Oc3c(ccc4c3C=CC(C)(C)O4)C(=O)[C@H]12 (stereo partly drawn)	> 100 µM	> 100 µM	> 100	> 100		> 100	> 100 µM								44.3			
COc1cc(O)c(C(=O)C2Cc3ccccc32)c(OC)c1 (stereo not drawn)	> 100 µM	> 100 µM	> 100	> 100	> 100	> 100	> 100 µM								> 100			
CC(=O)OC1COC(N2C(=O)C(=O)c3ccccc32)C(OC(C)=O)C1OC(C)=O (stereo not drawn)	> 100 µM	> 100 µM	> 100	> 100	> 100	> 100	> 100 µM								> 100			
O=[N+]([O-])c1ccc(N=P(c2ccccc2)(c2ccccc2)c2ccccc2)n2nnnc12	90.2 µM	> 100 µM	> 100	> 100	90.2	> 100	> 100 µM								67.5			
O=C1c2c(c3c4ccccc4n(CC4CO4)c3c3[nH]c4ccccc4c23)C(=O)N1Cc1ccccc1 (stereo not drawn)	> 100 µM	> 100 µM	> 100	> 100	> 100	> 100	> 100 µM								> 100			
CCn1c(=O)nc2n(-c3ccc(SC)cc3)c3ccccc3nc-2c1=O	> 100 µM	> 100 µM	> 100	> 100	> 100	> 100	> 100 µM								> 100			
CCOC(=O)C1=C(C)N(NC(=O)Nc2ccccc2)C2(N)N(NC(=O)Nc3ccccc3)C(C)=C(C(=O)OCC)C12C#N (stereo not drawn)		71.9 µM	36.6	32.6		49.3	33.4 µM								39.4			
CCNC(=O)O/N=C1\CCC2[C@@H]3CC=C4C[C@@H](OC(=O)NCC)CC[C@]4(C)C3CC[C@]12C (stereo partly drawn)	> 100 µM		> 100	2.2	11.4	5.9	18.2 µM								13.3			
CCOC(=O)C(Oc1ccc(OC)c2c1C(=O)CCC2)c1ccccc1 (stereo not drawn)	> 100 µM	> 100 µM	> 100	> 100	> 100	> 100	> 100 µM											
CC(=O)O[C@H]1CSC[C@@H](OC(C)=O)C1[N+](=O)[O-] (stereo partly drawn)	> 100 µM	44.4 µM	> 100	34	> 100	> 100	> 100 µM								39.7			
Cc1ccccc1NC(=O)C(=O)C(C(=O)c1ccccc1F)C1OC(=O)c2ccccc21 (stereo not drawn)	44.4 µM	62.4 µM		75.3		> 100									65.8			
CCCCCCNC(=O)CCN(C(=O)O)S(=O)(=O)c1ccc(NC(=O)c2ccccc2)cc1	> 100 µM	52.3 µM	> 100	> 100	> 100	> 100	> 100 µM								> 100			
COc1cc(/C=N/NC(=O)c2cnn3c2NC(c2ccccc2)C3)ccc1OCc1ccccc1 (stereo not drawn)	4.27 µM	> 100 µM	7.26		2.11	5.94	9.54 µM	1.2	0.712	0.992		0.453	1.76	2.15	5.77	1.48	1.51	10.9 µM
CN(N=O)c1ccc(/C=C/c2ccnc3ccccc23)cc1	> 100 µM	> 100 µM	> 100		> 100	> 100	> 100 µM								> 100			> 100 µM
O=C1OC(c2ccccc2)=N/C1=C\c1ccccc1	> 100 µM and 73.5 µM	74.4 µM and 87.5 µM	> 100		> 100	> 100	> 100 µM and 73.1 µM								> 100			> 100 µM and 76.9 µM
Nc1ncc(CN2CCCC2)c(-c2ccccc2O)n1	> 750 µM		> 750	> 750	> 750	> 750	> 750 µM		> 750						> 750			
CN(C(=O)C12C3C4C1C1C2C3C41C#N)C(C)(C)C (stereo not drawn)	> 100 µM	> 100 µM	> 100	> 100	> 100	> 100	> 100 µM											
N/N=C1/C(=O)N(c2ccc(Cl)cc2)C(=O)C(=O)C1c1nc2ccccc2s1 (stereo not drawn)	> 100 µM	> 100 µM	> 100	> 100	> 100	> 100	> 100 µM								> 100			
CSc1ccc(-c2cn3ccsc3n2)cc1	> 100 µM	> 47.1 µM	> 75.5		> 86	> 84.7	> 100 µM	34.6	3.97	5.73		19	18	15.8	> 78.9	6.81	26.4	> 100 µM
COc1oc(C2C/C(=C/C(C)=C/C(C)=C/C(C)=C/c3ccc([N+](=O)[O-])cc3)CO2)c(C)c(=O)c1C (stereo not drawn)	> 100 µM	23.5 µM	42.5		34.7	> 45.6	32.5 µM								40			> 49.6 µM

From PubChem BioAssay (NCI)
